Experimental data: patent US7501410B2, “Methods of inhibiting BTK and SYK protein kinases” (Roche Palo Alto LLC, priority 2006, dated 2009)

Key:
[1] = molecular target: T1, Bruton's Tyrosine Kinase (Btk) (Homo sapiens, UniProt Q06187); assay: Determination of IC50 of Bruton's Tyrosine Kinase (Btk) inhibition, 33P filtration assay; type: biochemical; conditions: His-tagged full-length Btk, 100 μM ATP
T1 construct: 5-10 nM Btk enzyme (His-tagged, full-length); His tag
Text: Determination of IC50 of Bruton's Tyrosine Kinase (Btk) Inhibition
The assay is a capture of radioactive ^33P phosphorylated product through filtration. The interactions of Btk, biotinylated SH2 peptide substrate (Src homology), and ATP lead to phosphorylation of the peptide substrate. Biotinylated product is bound streptavidin sepharose beads. All bound, radiolabeled products are detected by scintillation counter.
Plates assayed are 96-well polypropylene (Greiner) and 96-well 1.2 μm hydrophilic PVDF filter plates (Millipore). Concentrations reported here are final assay concentrations: 10-100 μM compounds in DMSO (Burdick and Jackson), 5-10 nM Btk enzyme (His-tagged, full-length), 30 μM peptide substrate (Biotin-Aca-[…]-NH2), 100 μM ATP (Sigma), 8 mM imidazole (Sigma, pH 7.2), 8 mM glycerol-2-phosphate (Sigma), 200 μM EGTA (Roche Diagnostics), 1 mM MnCl2 (Sigma), 20 mM MgCl2 (Sigma), 0.1 mg/ml BSA (Sigma), 2 mM DTT (Sigma), 1 μCi ^33P ATP (Amersham), 20% streptavidin sepharose beads (Amersham), 50 mM EDTA (Gibco), 2 M NaCl (Gibco), 2 M NaCl w/1% phosphoric acid (Gibco), microscint-20 (Perkin Elmer).
IC50 determinations are calculated from 10 data points per compound utilizing data produced from a standard 96-well plate assay template. One control compound and seven unknown inhibitors were tested on each plate and each plate was run twice. Typically, compounds were diluted in half-log starting at 100 μM and ending at 3 nM. The control compound was staurosporine. Background was counted in the absence of peptide substrate. Total activity was determined in the presence of peptide substrate. The following protocol was used to determine BTK inhibition.
1) Sample preparation: The test compounds were diluted at half-log increments in assay buffer (imidazole, glycerol-2-phosphate, EGTA, MnCl2, MgCl2, BSA).
2) Bead preparation • a.) rinse beads by centrifuging at 500 g • b.) reconstitute the beads with PBS and EDTA to produce a 20% bead slurry
3) Pre-incubate reaction mix without substrate (assay buffer, DTT, ATP, ^33P ATP) and mix with substrate (assay buffer, DTT, ATP, ^33P ATP, peptide substrate) 30° C. for 15 min.
4) To start assay, pre-incubate 10 μL BTK in enzyme buffer (imidazole, glycerol-2-phosphate, BSA) and 10 μL of test compounds for 10 min at RT.
5) Add 30 μL reaction mixture without or with substrate to BTK and compounds.
6) Incubate 50 μL total assay mix for 30 min at 30° C.
7) Transfer 40 μL of assay to 150 μL bead slurry in filter plate to stop reaction.
8) Wash filter plate after 30 min, with following steps • a. 3 ×250 μL NaCl • b. 3×250 μL NaCl containing 1% phosphoric acid • c. 1×250 μL H2O
9) Dry plate for 1 h at 65° C. or overnight at RT
10) Add 50 μL microscint-20 and count ^33P cpm on scintillation counter.
Calculate percent activity from raw data in cpm percent activity=(sample−bkg)/(total activity−bkg)×100

[2] = molecular target: T2, Spleen Tyrosine Kinase (SYK) aa 360-635 (Homo sapiens, UniProt P43405); assay: Determination of IC50 of Spleen Tyrosine Kinase (SYK) inhibition, 33P kinase assay; type: biochemical; conditions: recombinant human SYK360-635, 20 μM ATP; read-out: IC50 (μM) SYK Assay
T2 construct: truncated construct of Spleen Tyrosine Kinase aa 360-635; made in house
Method: Determination of IC50 of Spleen Tyrosine Kinase (SYK) Inhibition
The SYK kinase assay is a standard kinase assay adapted to a 96 well plate format. This assay is performed in 96-well format for IC50 determination with 8 samples which represented 10 half log dilutions and a 40 μL reaction volume. The assay measures the incorporation of radiolabeled ^33P γATP into an N-terminally biotinylated peptide substrate, derived from naturally occurring phosphoacceptor consensus sequence (Biotin-11aa DY*E). Phosphorylated products were detected upon termination of reactions with EDTA and the addition of Streptavidin coated beads. • Assay plates: 96-well MultiScreen 0.65 um filter plates (Millipore Cat. No.: MADVNOB10) • Streptavidin coated beads: Streptavidin Sepharose TM, suspension 5.0 mL, in 50 mM EDTA/PBS diluted (1:100), (Amersham, Cat. No.: 17-5113-01) • Compounds: 10 mM in 100% dimethylsulfoxide (DMSO), final conc.: compound 0.003-100 uM in 10% DMSO • Enzyme: SYK RPA purified, truncated construct of Spleen Tyrosine Kinase aa 360-635, stock solution 1 mg/mL, MW: 31.2 KDa, final conc.:0.0005 μM. • Peptide 1: biotinylated peptide is derived from a naturally occurring phosphor-acceptor consensus sequence (Biotin-[…]), special order from QCB, stock solution 20 mM, final conc.: 5.0 μM. • ATP: Adenosine-5′-triphosphate 20 mM, (ROCHE Cat. No.:93202720), final concentration: 20 μM • Buffer: HEPES: 2-Hydroxyethyl piperazine-2-ethanesulfonic acid (Sigma, Cat. No.: H-3375) final concentration: 50 mM HEPES pH7.5 • BSA: Bovine Serum Albumin Fraction V, fatty acid free (Roche Diagnostics GmbH, Cat. No. 9100221) diluted to a final concentration of 0.1% • EDTA: EDTA stock solution 500 mM, (GIBCO, Cat. No.: 15575-038) final concentration: 0.1 mM • DTT: 1,4-Dithiothreitol (Roche Diagnostics GmbH, Cat. No.: 197777), final conc.: 1 mM • MgCl2×6H2O: MERCK, Cat. No.: 105833.1000, final concentration: 10 mM • Assay Dilution Buffer (ADB): 50 mM HEPES, 0.1 mM EGTA, 0.1 mM Na Vanadate, 0.1 mM β-glycerophosphate, 10 mM MgCl2, 1 mM DTT, 0,1% BSA, pH 7.5 • Bead wash buffer: 10 g/L PBS (Phosphate buffered saline) with 2M NaCl+1% phosphoric acid Experimental Method:
In 40 μL volume, 26 μL of ADB diluted, purified recombinant human SYK360-635 [0.5 nM] was mixed with 4 μL of 10× concentrations of the test compounds, [usually 100 μM-0.003 μM] in [10%] DMSO and the mixture was incubated for 10 min at RT.
The kinase reaction was initiated by the addition of 10 μL 4× substrate cocktail containing the DYE peptide substrate [0 or 5 μM], ATP [20 μM] and […] [2 μCi/rxn]. After incubation at 30° C. for 15 min, the reaction was terminated by the transfer of 25 μL of the reaction sample to a 96 well 0.65 um Millipore MADVNOB membrane/plate containing 200 μL 5 mM EDTA and 20% Streptavidine coated beads in PBS.
The unbound radionucleotides were washed under vacuum with 3×250 μL 2M NaCl; 2×250 μL 2M NaCl+1% phosphoric acid; 1×250 μL H2O. After the last wash membrane/plates were transferred to an adaptor plate, heat dried for 15 min at 60° C., and 50 μL scintillation cocktail was added to each well and 4 h later the amount of radioactivity was counted in a top counter.
The IC50 was calculated using a non-linear curve fit with XLfit software (ID Business Solution Ltd., Guilford, Surrey, UK). […] Representative results are in Table 1.

T1 sequence (Q06187 whole entry): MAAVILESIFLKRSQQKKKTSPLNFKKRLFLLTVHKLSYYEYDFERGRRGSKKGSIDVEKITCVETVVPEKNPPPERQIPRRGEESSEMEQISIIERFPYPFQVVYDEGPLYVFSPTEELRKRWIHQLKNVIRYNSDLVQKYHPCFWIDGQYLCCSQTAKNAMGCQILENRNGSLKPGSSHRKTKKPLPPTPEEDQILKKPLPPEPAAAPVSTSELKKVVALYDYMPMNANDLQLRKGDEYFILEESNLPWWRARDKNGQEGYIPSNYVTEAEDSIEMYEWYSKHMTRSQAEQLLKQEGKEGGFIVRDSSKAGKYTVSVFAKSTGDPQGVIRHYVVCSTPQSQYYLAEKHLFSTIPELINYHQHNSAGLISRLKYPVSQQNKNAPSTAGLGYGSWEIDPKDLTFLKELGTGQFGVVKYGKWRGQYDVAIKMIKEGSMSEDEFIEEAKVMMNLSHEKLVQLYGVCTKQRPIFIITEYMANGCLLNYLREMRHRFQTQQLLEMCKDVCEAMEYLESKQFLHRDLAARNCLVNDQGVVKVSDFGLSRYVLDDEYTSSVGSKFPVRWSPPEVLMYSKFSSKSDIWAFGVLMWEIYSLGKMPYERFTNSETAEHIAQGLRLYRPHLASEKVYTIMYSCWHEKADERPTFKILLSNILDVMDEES

Row | Molecule | IC50 [1] [µM] | IC50 [2] [µM]
1 | 4-(5-Methyl-2H-pyrazole-3-ylamino)-phenyl-2H-phthalazin-1-one [Example A-1] | 1.25 | 
2 | Cc1cc(Nc2nn(C)c(=O)c3ccccc23)n[nH]1 [Example A-3, 2-methyl-4-(5-methyl-1H-pyrazol-3-yl-amino)-2H-phthalazin-1-one] | 70.5 | 
3 | Cc1cc(Nc2nn(CC(C)C)c(=O)c3ccccc23)n[nH]1 [Example A-4, 2-isobutyl-4-(5-methyl-1H-pyrazol-3-ylamino)-2H-phthalazin-1-one] | 11.4 | 
4 | Cc1cc(Nc2nn(CC(F)(F)F)c(=O)c3ccccc23)n[nH]1 [Example A-5, 4-(5-methyl-1H-pyrazol-3-ylamino)-2-(2,2,2-trifluoro-ethyl)-2H-phthalazin-1-one] | 8.22 | 7.68
5 | Cc1ccc(-n2nc(Nc3cc(C)[nH]n3)c3ccccc3c2=O)cc1 [Example A-6, 4-(5-methyl-1H-pyrazol-3-ylamino)-2-p-tolyl-2H-phthalazin-1-one] | 38.2 | 
6 | Cc1cc(Nc2nn(-c3ccc(F)cc3)c(=O)c3ccccc23)n[nH]1 [Example A-7, 2-(4-fluoro-phenyl)-4-(5-methyl-1H-pyrazol-3-ylamino)-2H-phthalazin-1-one] | 6.3 | 
7 | Cc1cc(Nc2nn(-c3ccc(C(C)(C)C)cc3)c(=O)c3ccccc23)n[nH]1 [Example A-8, 2-(4-tert-butyl-phenyl)-4-(5-methyl-1H-pyrazol-3-ylamino)-2H-phthalazin-1-one] | 30 | 0.552
8 | COc1ccc(-n2nc(Nc3cc(C)[nH]n3)c3ccccc3c2=O)cc1 [Example A-9, 2-(4-methoxy-phenyl)-4-(5-methyl-1H-pyrazol-3-ylamino)-2H-phthalazin-1-one] | 5.87 | 
9 | Cc1ccc(-n2nc(Nc3cc[nH]n3)c3ccccc3c2=O)cc1 [Example A-10, 4-(1H-pyrazol-3-yl-amino)-2-p-tolyl-2H-phthalazin-1-one] | 16.6 | 
10 | COc1ccc(Cn2nc(Nc3cc(C)[nH]n3)c3ccccc3c2=O)cc1 [Example A-11, 2-(4-methoxy-benzyl)-4-(5-methyl-1H-pyrazol-3-ylamino)-2H-phthalazin-1-one] | 9.79 | 49.2
11 | Cc1cc(Nc2nn(Cc3cc(F)ccc3F)c(=O)c3ccccc23)n[nH]1 [Example A-13, 2-(2,5-difluoro-benzyl)-4-(5-methyl-1H-pyrazol-3-yl-amino)-2H-phthalazin-1-one] | 38.6 | 22.9
12 | Cc1cc(Nc2nn(Cc3csc(C)n3)c(=O)c3ccccc23)n[nH]1 [Example A-16, 4-(5-methyl-1H-pyrazol-3-ylamino)-2-(2-methyl-thiazol-4-ylmethyl)-2H-phthalazin-1-one] | 25.2 | 87.9
13 | Cc1cc(Nc2nn(Cc3cccnc3)c(=O)c3ccccc23)[nH]n1 [Example A-18, 4-(5-methyl-2H-pyrazol-3-ylamino)-2-pyridin-3-ylmethyl-2H-phthalazin-1-one] |  | 6.53
14 | Cc1cc(Nc2nn(Cc3cc(F)cc(F)c3)c(=O)c3ccccc23)n[nH]1 [Example A-21, 2-(3,5-difluoro-benzyl)-4-(5-methyl-1H-pyrazol-3-yl-amino)-2H-phthalazin-1-one] | 14.6 | > 10
15 | Cc1cc(Nc2nn(Cc3ccccn3)c(=O)c3ccccc23)[nH]n1 [Example A-22, 4-(5-methyl-2H-pyrazol-3-ylamino)-2-pyridin-2-ylmethyl-2H-phthalazin-1-one] |  | 78.1
16 | Cc1cc(Nc2nn(C(C)C)c(=O)c3ccccc23)n[nH]1 [Example A-23, 2-isopropyl-4-(5-methyl-1H-pyrazol-3-ylamino)-2H-phthalazin-1-one] | 50.9 | 
17 | Cc1cc(Nc2nn(Cc3cccc(C(=O)O)c3)c(=O)c3ccccc23)n[nH]1 [Example A-24, 3-[4-(5-methyl-1H-pyrazol-3-ylamino)-1-oxo-1H-phthalazin-2-ylmethyl]-benzoic acid] | 1.75 | 24.9
18 | Cc1cc(Nc2nn(-c3ccc(C(F)(F)F)cc3)c(=O)c3ccccc23)[nH]n1 [Example A-25, 4-(5-methyl-1H-pyrazol-3-ylamino)-2-(4-trifluoromethyl-phenyl)-2H-phthalazin-1-one] |  | 0.525
19 | Cc1cc(Nc2nn(-c3ccc(Cl)cc3)c(=O)c3ccccc23)n[nH]1 [Example B-1, 2-(4-Chloro-phenyl)-4-(5-methyl-1H-pyrazol-3-ylamino)-2H-phthalazin-1-one] | 5.03 | 1.19
20 | Cc1cc(Nc2nn(Cc3ccccc3)c(=O)c3ccccc23)n[nH]1 [Example E-1, 2-Benzyl-4-(5-methyl-1H-pyrazol-3-ylamino)-2H-phthalazin-1-one] | > 100 | 
21 | COCc1ccc2c(Nc3cc(C)[nH]n3)nn(C(C)C)c(=O)c2c1 [Example K-1, 2-Isopropyl-7-methoxymethyl-4-(5-methyl-1H-pyrazol-3-ylamino)-2H-phthalazin-1-one] |  | 1.25
22 | Cc1cc(Nc2nn(C(C)C)c(=O)c3ccc(CO)cc23)n[nH]1 [Example M-10, 6-Hydroxymethyl-2-isopropyl-4-(5-methyl-1H-pyrazol-3-yl-amino)-2H-phthalazin-1-one] |  | 56.9
